Data: patent US20130172294A1, “Treatment with VB-201” (Vascular Biogenics Ltd., priority 2010, published 2013)

Assay: Effect of food and capsule coating on single-dose pharmacokinetics (Example 3)
Assay type: in vivo, human
Method: Determination of VB-201 concentrations in plasma was performed using an HPLC-MS/MS (high performance liquid chromatography with tandem mass spectrometric detection) assay. Calibration was for a range of from 5 to 500 ng/ml for low doses and from 50 to 5000 ng/ml for high doses. Pharmacokinetic parameters were estimated by using a non-compartmental method, except for the AUC (area under curve), which was determined using a (log-) trapezoidal rule as the area above the previous trough level. All calculations were made using PKWizard (developed by Russell Barbare and Dr. […] was validated against WinNonlin (Pharsight Corp.), which is an FDA-recognized validated program. Pharmacokinetic parameters were calculated by the program according to standard methods used in the art. Calculation of the pharmacokinetic characteristics was based on the actual blood sampling time (in hours), with predose times set to zero. Concentrations below the LLOQ (lower limit of quantification; 4.974 ng/ml) were assumed to be zero. The effects of food on the pharmacokinetics of enteric coated and non-coated VB-201 capsules were investigated in a double-blind, placebo-controlled study in healthy subjects. Cohorts of six subjects each received a single dose of 10 mg, 2×10 mg or 20 mg VB-201 in the morning. […] Subjects were randomly assigned to receive the drug when fed (i.e., following completion of a standardized high fat meal) or when fasting (i.e., fasting for at least 10 hours). […] Subjects then underwent an additional 8 day washout period, after which subjects underwent a second administration. Subjects who received the first administration when fasting, received the second administration when fed, and subjects who received the first administration when fed, received the second administration when fasting. Following the second administration, blood samples were taken at the same times post-dose as previously. Concentration-time curves were constructed for time periods of up to 144 hours. Pharmacokinetic parameters were calculated based on data for the first 24 hours and for the whole 144 hours. […] Nevertheless, parameters were also calculated from data covering the first 24 hours in order to compare parameters with previous studies. Statistical comparisons of doses, coated vs. non-coated capsules, feeding vs. fasting and coating-feeding interactions were performed using a mixed model ANOVA in an SAS 8.02 software package (SAS Institute, Cary, N.C.) using PROC MIXED

## CCCCCCCCCCCCCCCCOCC(COP(=O)([O-])OCC[N+](C)(C)C)OCCCCC(=O)O (stereo not shown) [VB-201, 1-hexadecyl-2-(4′-carboxybutyl)-glycerol-3-phosphocholine]
1 × 10 mg coated fasting
  AUC (0-infinity, from 24): 4801 ng·h/mL
  AUC (0-infinity, from 144): 8017 ng·h/mL
  AUC(0-24): 2602 ng·h/mL
  AUC(0-144): 7397 ng·h/mL
  AUMC (0-24): 33556 hours^2*ng/ml
  AUMC (0-infinity): 467760 hours^2*ng/ml
  Cl/F (0-24): 3.293 L/h
  Cl/F (from 144): 1.580 L/h
  Cmax: 171.4 ng/mL
  Ke (from 24): 0.0438 h⁻¹
  Ke (from 144): 0.0201 h⁻¹
  MTT (0-24): 12.8 h
  MTT (from 144): 60.7 h
  T1/2 (from 24): 17.8 h
  T1/2 (from 144): 37.6 h
  Tmax: 9.33 h
1 × 10 mg coated fed
  AUC (0-infinity, from 24): 5898 ng·h/mL
  AUC (0-infinity, from 144): 9751 ng·h/mL
  AUC(0-24): 2202 ng·h/mL
  AUC(0-144): 8583 ng·h/mL
  AUMC (0-24): 32798 hours^2*ng/ml
  AUMC (0-infinity): 699311 hours^2*ng/ml
  Cl/F (0-24): 1.883 L/h
  Cl/F (from 144): 1.091 L/h
  Cmax: 186.4 ng/mL
  Ke (from 24): 0.0352 h⁻¹
  Ke (from 144): 0.0166 h⁻¹
  MTT (0-24): 15.1 h
  MTT (from 144): 70.7 h
  T1/2 (from 24): 23.4 h
  T1/2 (from 144): 45.0 h
  Tmax: 13.67 h
1 × 10 mg non-coated fasting
  AUC (0-infinity, from 24): 9375 ng·h/mL
  AUC (0-infinity, from 144): 15995 ng·h/mL
  AUC(0-24): 5759 ng·h/mL
  AUC(0-144): 14544 ng·h/mL
  AUMC (0-24): 67186 hours^2*ng/ml
  AUMC (0-infinity): 924243 hours^2*ng/ml
  Cl/F (0-24): 1.184 L/h
  Cl/F (from 144): 0.695 L/h
  Cmax: 364.5 ng/mL
  Ke (from 24): 0.0575 h⁻¹
  Ke (from 144): 0.0190 h⁻¹
  MTT (0-24): 11.7 h
  MTT (from 144): 54.2 h
  T1/2 (from 24): 13.6 h
  T1/2 (from 144): 39.7 h
  Tmax: 7.67 h
1 × 10 mg non-coated fed
  AUC (0-infinity, from 24): 7019 ng·h/mL
  AUC (0-infinity, from 144): 16062 ng·h/mL
  AUC(0-24): 4855 ng·h/mL
  AUC(0-144): 13717 ng·h/mL
  AUMC (0-24): 60611 hours^2*ng/ml
  AUMC (0-infinity): 1254665 hours^2*ng/ml
  Cl/F (0-24): 1.552 L/h
  Cl/F (from 144): 0.702 L/h
  Cmax: 343.3 ng/mL
  Ke (from 24): 0.0670 h⁻¹
  Ke (from 144): 0.0180 h⁻¹
  MTT (0-24): 12.5 h
  MTT (from 144): 70.3 h
  T1/2 (from 24): 11.2 h
  T1/2 (from 144): 47.7 h
  Tmax: 10.17 h
1 × 20 mg coated fasting
  AUC (0-infinity, from 24): 9794 ng·h/mL
  AUC (0-infinity, from 144): 15637 ng·h/mL
  AUC(0-24): 5362 ng·h/mL
  AUC(0-144): 14579 ng·h/mL
  AUMC (0-24): 68472 hours^2*ng/ml
  AUMC (0-infinity): 849853 hours^2*ng/ml
  Cl/F (0-24): 3.188 L/h
  Cl/F (from 144): 2.387 L/h
  Cmax: 366.3 ng/mL
  Ke (from 24): 0.0385 h⁻¹
  Ke (from 144): 0.0203 h⁻¹
  MTT (0-24): 12.8 h
  MTT (from 144): 53.8 h
  T1/2 (from 24): 19.9 h
  T1/2 (from 144): 35.6 h
  Tmax: 8.17 h
1 × 20 mg coated fed
  AUC (0-infinity, from 24): 20054 ng·h/mL
  AUC (0-infinity, from 144): 16687 ng·h/mL
  AUC(0-24): 4655 ng·h/mL
  AUC(0-144): 14968 ng·h/mL
  AUMC (0-24): 66330 hours^2*ng/ml
  AUMC (0-infinity): 1070977 hours^2*ng/ml
  Cl/F (0-24): 1.400 L/h
  Cl/F (from 144): 1.583 L/h
  Cmax: 306.6 ng/mL
  Ke (from 24): 0.0230 h⁻¹
  Ke (from 144): 0.0179 h⁻¹
  MTT (0-24): 14.9 h
  MTT (from 144): 62.9 h
  T1/2 (from 24): 53.2 h
  T1/2 (from 144): 39.6 h
  Tmax: 11.67 h
1 × 20 mg non-coated fasting
  AUC (0-infinity, from 24): 16958 ng·h/mL
  AUC (0-infinity, from 144): 29478 ng·h/mL
  AUC(0-24): 10013 ng·h/mL
  AUC(0-144): 26650 ng·h/mL
  AUMC (0-24): 122207 hours^2*ng/ml
  AUMC (0-infinity): 1763607 hours^2*ng/ml
  Cl/F (0-24): 1.301 L/h
  Cl/F (from 144): 0.702 L/h
  Cmax: 660.4 ng/mL
  Ke (from 24): 0.0486 h⁻¹
  Ke (from 144): 0.0166 h⁻¹
  MTT (0-24): 12.0 h
  MTT (from 144): 61.0 h
  T1/2 (from 24): 14.6 h
  T1/2 (from 144): 43.5 h
  Tmax: 8.33 h
1 × 20 mg non-coated fed
  AUC (0-infinity, from 24): 23552 ng·h/mL
  AUC (0-infinity, from 144): 26424 ng·h/mL
  AUC(0-24): 8334 ng·h/mL
  AUC(0-144): 24282 ng·h/mL
  AUMC (0-24): 111005 hours^2*ng/ml
  AUMC (0-infinity): 1555946 hours^2*ng/ml
  Cl/F (0-24): 1.197 L/h
  Cl/F (from 144): 0.852 L/h
  Cmax: 546.4 ng/mL
  Ke (from 24): 0.0332 h⁻¹
  Ke (from 144): 0.0193 h⁻¹
  MTT (0-24): 13.0 h
  MTT (from 144): 57.2 h
  T1/2 (from 24): 25.2 h
  T1/2 (from 144): 36.4 h
  Tmax: 8.17 h
2 × 10 mg coated fasting
  AUC (0-infinity, from 24): 10388 ng·h/mL
  AUC (0-infinity, from 144): 24950 ng·h/mL
  AUC(0-24): 6427 ng·h/mL
  AUC(0-144): 20269 ng·h/mL
  AUMC (0-24): 83132 hours^2*ng/ml
  AUMC (0-infinity): 2246560 hours^2*ng/ml
  Cl/F (0-24): 3.318 L/h
  Cl/F (from 144): 1.815 L/h
  Cmax: 424.6 ng/mL
  Ke (from 24): 0.0493 h⁻¹
  Ke (from 144): 0.0174 h⁻¹
  MTT (0-24): 12.9 h
  MTT (from 144): 69.2 h
  T1/2 (from 24): 14.9 h
  T1/2 (from 144): 48.0 h
  Tmax: 9.67 h
2 × 10 mg coated fed
  AUC (0-infinity, from 24): 15799 ng·h/mL
  AUC (0-infinity, from 144): 24463 ng·h/mL
  AUC(0-24): 5008 ng·h/mL
  AUC(0-144): 21417 ng·h/mL
  AUMC (0-24): 74749 hours^2*ng/ml
  AUMC (0-infinity): 1794144 hours^2*ng/ml
  Cl/F (0-24): 2.067 L/h
  Cl/F (from 144): 1.239 L/h
  Cmax: 422.3 ng/mL
  Ke (from 24): 0.0427 h⁻¹
  Ke (from 144): 0.0196 h⁻¹
  MTT (0-24): 15.1 h
  MTT (from 144): 64.6 h
  T1/2 (from 24): 22.8 h
  T1/2 (from 144): 37.7 h
  Tmax: 14.33 h
2 × 10 mg non-coated fasting
  AUC (0-infinity, from 24): 14643 ng·h/mL
  AUC (0-infinity, from 144): 25734 ng·h/mL
  AUC(0-24): 10036 ng·h/mL
  AUC(0-144): 24028 ng·h/mL
  AUMC (0-24): 117485 hours^2*ng/ml
  AUMC (0-infinity): 1319516 hours^2*ng/ml
  Cl/F (0-24): 1.444 L/h
  Cl/F (from 144): 0.810 L/h
  Cmax: 724.4 ng/mL
  Ke (from 24): 0.0606 h⁻¹
  Ke (from 144): 0.0195 h⁻¹
  MTT (0-24): 11.7 h
  MTT (from 144): 51.5 h
  T1/2 (from 24): 11.7 h
  T1/2 (from 144): 36.3 h
  Tmax: 8.67 h
2 × 10 mg non-coated fed
  AUC (0-infinity, from 24): 15305 ng·h/mL
  AUC (0-infinity, from 144): 25822 ng·h/mL
  AUC(0-24): 8708 ng·h/mL
  AUC(0-144): 24104 ng·h/mL
  AUMC (0-24): 109878 hours^2*ng/ml
  AUMC (0-infinity): 1409500 hours^2*ng/ml
  Cl/F (0-24): 1.394 L/h
  Cl/F (from 144): 0.802 L/h
  Cmax: 652.1 ng/mL
  Ke (from 24): 0.0528 h⁻¹
  Ke (from 144): 0.0195 h⁻¹
  MTT (0-24): 12.7 h
  MTT (from 144): 54.3 h
  T1/2 (from 24): 15.4 h
  T1/2 (from 144): 36.1 h
  Tmax: 8.50 h
Enteric coated vs non-coated
  effect of enteric coatings on Tmax: increased
